Laboratory results published in ChEMBL document CHEMBL5634112, “Synthesis and biological evaluation of fluoroquinolones containing a pyridoxine derivatives moiety” (Eur J Med Chem, 2023).
≈ marks a conversion by molar mass, not a printed value.

Legend:
[1] = test system: Staphylococcus epidermidis; test: Antibacterial activity against clinical isolate Staphylococcus epidermidis assessed as reduction in microbial growth incubated for 24 hrs by broth microdilution method; assay type: functional
[2] = test system: Staphylococcus epidermidis; test: Antibacterial activity against clinical isolate Staphylococcus epidermidis NKC 37/1 assessed as reduction in microbial growth incubated for 24 hrs by broth microdilution method; assay type: functional
Staphylococcus aureus [3] = test: Antibacterial activity against clinical isolate methicillin resistant Staphylococcus aureus 4771 assessed as reduction in microbial growth incubated for 24 hrs by broth microdilution method; assay type: functional
Bacillus subtilis = test: Antibacterial activity against Bacillus subtilis 168 assessed as reduction in microbial growth incubated for 24 hrs by broth microdilution method; assay type: functional
Micrococcus luteus = test: Antibacterial activity against clinical isolate Micrococcus luteus assessed as reduction in microbial growth incubated for 24 hrs by broth microdilution method; assay type: functional
[4] = Cytotoxicity against human CHL assessed as reduction in cell viability incubated for 72 hrs by MTT assay; assay type: toxicity, cell-based; conditions: CHL cells
Klebsiella pneumoniae = test: Antibacterial activity against clinical isolate Klebsiella pneumoniae 1678 assessed as reduction in microbial growth incubated for 24 hrs by broth microdilution method; assay type: functional
[5] = Cytotoxicity against human MSC assessed as reduction in cell viability incubated for 72 hrs by MTT assay; assay type: toxicity, cell-based; conditions: MSC cells
Enterococcus faecalis = test: Antibacterial activity against clinical isolate Enterococcus faecalis 1465 assessed as reduction in microbial growth incubated for 24 hrs by broth microdilution method; assay type: functional
Staphylococcus aureus [6] = test: Antibacterial activity against clinical isolate Staphylococcus aureus 1812 assessed as reduction in microbial growth incubated for 24 hrs by broth microdilution method; assay type: functional
Staphylococcus aureus [7] = test: Antibacterial activity against clinical isolate Staphylococcus aureus 4721 assessed as reduction in microbial growth incubated for 24 hrs by broth microdilution method; assay type: functional
[8] = test system: Staphylococcus haemolyticus; test: Antibacterial activity against clinical isolate Staphylococcus haemolyticus 1464 assessed as reduction in microbial growth incubated for 24 hrs by broth microdilution method; assay type: functional
Staphylococcus aureus [9] = test: Antibacterial activity against methicillin sensitive Staphylococcus aureus ATCC 29213 assessed as reduction in microbial growth incubated for 24 hrs by broth microdilution method; assay type: functional
[10] = test system: Staphylococcus auricularis; test: Antibacterial activity against clinical isolate Staphylococcus auricularis NKC 7 assessed as reduction in microbial growth incubated for 24 hrs by broth microdilution method; assay type: functional
Pseudomonas aeruginosa [11] = test: Antibacterial activity against Pseudomonas aeruginosa ATCC 27853 assessed as reduction in microbial growth incubated for 24 hrs by broth microdilution method; assay type: functional
Klebsiella aerogenes = test: Antibacterial activity against clinical isolate Enterobacter aerogenes NKC 8 assessed as reduction in microbial growth incubated for 24 hrs by broth microdilution method; assay type: functional
Salmonella typhimurium = test: Antibacterial activity against Salmonella typhimurium TA100 assessed as reduction in microbial growth incubated for 24 hrs by broth microdilution method; assay type: functional, Salmonella enterica subsp. enterica serovar Typhimurium; conditions: Salmonella enterica
Pseudomonas aeruginosa [12] = test: Antibacterial activity against clinical isolate Pseudomonas aeruginosa NKC 17 assessed as reduction in microbial growth incubated for 24 hrs by broth microdilution method; assay type: functional
Escherichia coli [13] = test: Antibacterial activity against clinical isolate Escherichia coli NKC 1 assessed as reduction in microbial growth incubated for 24 hrs by broth microdilution method; assay type: functional
Cedecea davisae = test: Antibacterial activity against clinical isolate Cedecea davisae 1813 assessed as reduction in microbial growth incubated for 24 hrs by broth microdilution method; assay type: functional
[14] = Cytotoxicity against human HSF assessed as reduction in cell viability incubated for 72 hrs by MTT assay; assay type: toxicity, cell-based; conditions: HSF cells
Escherichia coli [15] = test: Antibacterial activity against Escherichia coli ATCC 25922 assessed as reduction in microbial growth incubated for 24 hrs by broth microdilution method; assay type: functional
[16] = test system: Staphylococcus haemolyticus; test: Antibacterial activity against clinical isolate Staphylococcus haemolyticus NKC 31/2 assessed as reduction in microbial growth incubated for 24 hrs by broth microdilution method; assay type: functional

CCn1cc(C(=O)O)c(=O)c2cc(F)c(N3CCN(Cc4cnc(C)c(O)c4CO)C(C)C3)c(F)c21.Cl (stereo unspecified)
MIC [1]: 1 µg/mL | MIC [2]: 1 µg/mL | MIC (Staphylococcus aureus [3]): 1 µg/mL | MIC (Bacillus subtilis): 0.5 µg/mL | MIC (Micrococcus luteus): 0.5 µg/mL | CC50 at 72 h [4]: 7.85 µg/mL | MIC (Klebsiella pneumoniae): > 64 µg/mL | CC50 at 72 h [5]: 13.1 µg/mL | MIC (Enterococcus faecalis): 8 µg/mL | MIC (Staphylococcus aureus [6]): 1 µg/mL | MIC (Staphylococcus aureus [7]): 1 µg/mL | MIC [8]: 1 µg/mL | MIC (Staphylococcus aureus [9]): 2 µg/mL | MIC [10]: 0.13 µg/mL | MIC (Pseudomonas aeruginosa [11]): 4 µg/mL | MIC (Klebsiella aerogenes): 8 µg/mL | MIC (Salmonella typhimurium): 2 µg/mL | MIC (Pseudomonas aeruginosa [12]): > 64 µg/mL | MIC (Escherichia coli [13]): 2 µg/mL | MIC (Cedecea davisae): 2 µg/mL | CC50 at 72 h [14]: 22.3 µg/mL | MIC (Escherichia coli [15]): 8 µg/mL | MIC [16]: 16 µg/mL

CCn1cc(C(=O)O)c(=O)c2cc(F)c(N3CCNC(C)C3)c(F)c21 (stereo unspecified) [LOMEFLOXACIN]
MIC [1]: 2 µg/mL | MIC [2]: 2 µg/mL | MIC (Staphylococcus aureus [3]): 1 µg/mL | MIC (Bacillus subtilis): 0.5 µg/mL | MIC (Micrococcus luteus): 1 µg/mL | CC50 at 72 h [4]: 31.3 µg/mL (≈ 89.1 µM) | MIC (Klebsiella pneumoniae): 1 µg/mL | CC50 at 72 h [5]: 35.7 µg/mL (≈ 102 µM) | MIC (Enterococcus faecalis): > 64 µg/mL | MIC (Staphylococcus aureus [6]): 2 µg/mL | MIC (Staphylococcus aureus [7]): 1 µg/mL | MIC [8]: 0.5 µg/mL | MIC (Staphylococcus aureus [9]): 0.5 µg/mL | MIC [10]: 0.06 µg/mL | MIC (Pseudomonas aeruginosa [11]): 4 µg/mL | MIC (Klebsiella aerogenes): 1 µg/mL | MIC (Salmonella typhimurium): 1 µg/mL | MIC (Pseudomonas aeruginosa [12]): 1 µg/mL | MIC (Escherichia coli [13]): 0.06 µg/mL | MIC (Cedecea davisae): 0.25 µg/mL | CC50 at 72 h [14]: 46.2 µg/mL (≈ 131 µM) | MIC (Escherichia coli [15]): 1 µg/mL | MIC [16]: 8 µg/mL

CCn1cc(C(=O)O)c(=O)c2cc(F)c(N3CCN(Cc4nc(C)c5c(c4CO)COC(C)(C)O5)CC3)cc21
MIC [1]: 8 µg/mL | MIC [2]: 4 µg/mL | MIC (Staphylococcus aureus [3]): 4 µg/mL | MIC (Bacillus subtilis): 2 µg/mL | MIC (Micrococcus luteus): 4 µg/mL | CC50 at 72 h [4]: 7.05 µg/mL (≈ 13 µM) | MIC (Klebsiella pneumoniae): > 64 µg/mL | CC50 at 72 h [5]: 16.2 µg/mL (≈ 30 µM) | MIC (Enterococcus faecalis): > 64 µg/mL | MIC (Staphylococcus aureus [6]): 8 µg/mL | MIC (Staphylococcus aureus [7]): 4 µg/mL | MIC [8]: 4 µg/mL | MIC (Staphylococcus aureus [9]): 2 µg/mL | MIC [10]: 0.25 µg/mL | MIC (Pseudomonas aeruginosa [11]): > 64 µg/mL | MIC (Klebsiella aerogenes): 32 µg/mL | MIC (Salmonella typhimurium): 2 µg/mL | MIC (Pseudomonas aeruginosa [12]): 64 µg/mL | MIC (Escherichia coli [13]): 16 µg/mL | MIC (Cedecea davisae): 2 µg/mL | CC50 at 72 h [14]: 24.9 µg/mL (≈ 46 µM) | MIC (Escherichia coli [15]): > 64 µg/mL | MIC [16]: 32 µg/mL

Cc1ncc(CN2CCN(c3cc4c(cc3F)c(=O)c(C(=O)O)cn4C3CC3)CC2)c(C)c1O.Cl
MIC [1]: 0.5 µg/mL | MIC [2]: 0.5 µg/mL | MIC (Staphylococcus aureus [3]): 0.5 µg/mL | MIC (Bacillus subtilis): 0.5 µg/mL | MIC (Micrococcus luteus): 0.5 µg/mL | CC50 at 72 h [4]: 14.2 µg/mL | MIC (Klebsiella pneumoniae): 16 µg/mL | CC50 at 72 h [5]: 25.1 µg/mL | MIC (Enterococcus faecalis): 16 µg/mL | MIC (Staphylococcus aureus [6]): 1 µg/mL | MIC (Staphylococcus aureus [7]): 0.5 µg/mL | MIC [8]: 0.5 µg/mL | MIC (Staphylococcus aureus [9]): 0.5 µg/mL | MIC [10]: 0.06 µg/mL | MIC (Pseudomonas aeruginosa [11]): 32 µg/mL | MIC (Klebsiella aerogenes): 1 µg/mL | MIC (Salmonella typhimurium): 1 µg/mL | MIC (Pseudomonas aeruginosa [12]): 16 µg/mL | MIC (Escherichia coli [13]): 0.13 µg/mL | MIC (Cedecea davisae): 0.5 µg/mL | CC50 at 72 h [14]: 27.6 µg/mL | MIC (Escherichia coli [15]): 1 µg/mL | MIC [16]: 16 µg/mL

Cc1ncc(CN2CCN(c3cc4c(cc3F)c(=O)c(C(=O)O)cn4C3CC3)CC2)c2c1OCOC2.Cl
MIC [1]: 0.5 µg/mL | MIC [2]: 0.25 µg/mL | MIC (Staphylococcus aureus [3]): 2 µg/mL | MIC (Bacillus subtilis): 2 µg/mL | MIC (Micrococcus luteus): 16 µg/mL | CC50 at 72 h [4]: 14.9 µg/mL | MIC (Klebsiella pneumoniae): 16 µg/mL | CC50 at 72 h [5]: 69.5 µg/mL | MIC (Enterococcus faecalis): 8 µg/mL | MIC (Staphylococcus aureus [6]): 0.25 µg/mL | MIC (Staphylococcus aureus [7]): 0.13 µg/mL | MIC [8]: 0.13 µg/mL | MIC (Staphylococcus aureus [9]): 1 µg/mL | MIC [10]: 0.03 µg/mL | MIC (Pseudomonas aeruginosa [11]): 32 µg/mL | MIC (Klebsiella aerogenes): 16 µg/mL | MIC (Salmonella typhimurium): 0.5 µg/mL | MIC (Pseudomonas aeruginosa [12]): 32 µg/mL | MIC (Escherichia coli [13]): 2 µg/mL | MIC (Cedecea davisae): 0.03 µg/mL | CC50 at 72 h [14]: 40.3 µg/mL | MIC (Escherichia coli [15]): 8 µg/mL | MIC [16]: 8 µg/mL

COc1c(N2C[C@@H]3CCCN(Cc4cnc(C)c5c4COCO5)[C@@H]3C2)c(F)cc2c(=O)c(C(=O)O)cn(C3CC3)c12.Cl
MIC [1]: 16 µg/mL | MIC [2]: 0.03 µg/mL | MIC (Staphylococcus aureus [3]): 0.03 µg/mL | MIC (Bacillus subtilis): 2 µg/mL | MIC (Micrococcus luteus): 8 µg/mL | CC50 at 72 h [4]: 2.34 µg/mL | MIC (Klebsiella pneumoniae): > 64 µg/mL | CC50 at 72 h [5]: 9.62 µg/mL | MIC (Enterococcus faecalis): 1 µg/mL | MIC (Staphylococcus aureus [6]): 0.06 µg/mL | MIC (Staphylococcus aureus [7]): 0.03 µg/mL | MIC [8]: 0.03 µg/mL | MIC (Staphylococcus aureus [9]): 2 µg/mL | MIC [10]: 0.03 µg/mL | MIC (Pseudomonas aeruginosa [11]): 64 µg/mL | MIC (Klebsiella aerogenes): > 64 µg/mL | MIC (Salmonella typhimurium): 2 µg/mL | MIC (Pseudomonas aeruginosa [12]): > 64 µg/mL | MIC (Escherichia coli [13]): 4 µg/mL | MIC (Cedecea davisae): 0.03 µg/mL | CC50 at 72 h [14]: 5.8 µg/mL | MIC (Escherichia coli [15]): 2 µg/mL | MIC [16]: 1 µg/mL

Cc1nc(CN2CCN(c3cc4c(cc3F)c(=O)c(C(=O)O)cn4C3CC3)CC2)c(CO)c2c1OC(C)(C)OC2
MIC [1]: 8 µg/mL | MIC (Bacillus subtilis): 2 µg/mL | MIC (Micrococcus luteus): 8 µg/mL | MIC (Staphylococcus aureus [9]): 8 µg/mL | MIC (Pseudomonas aeruginosa [11]): > 64 µg/mL | MIC (Salmonella typhimurium): 4 µg/mL | MIC (Escherichia coli [15]): 64 µg/mL

COc1c(N2C[C@@H]3CCCN(Cc4cnc(C)c5c4COC(C)O5)[C@@H]3C2)c(F)cc2c(=O)c(C(=O)O)cn(C3CC3)c12 (stereo partly specified)
MIC [1]: 4 µg/mL | MIC (Bacillus subtilis): 1 µg/mL | MIC (Micrococcus luteus): 4 µg/mL | MIC (Staphylococcus aureus [9]): 1 µg/mL | MIC (Pseudomonas aeruginosa [11]): > 64 µg/mL | MIC (Salmonella typhimurium): 4 µg/mL | MIC (Escherichia coli [15]): 16 µg/mL

CCn1cc(C(=O)O)c(=O)c2cc(F)c(N3CCN(Cc4cnc(C)c5c4COC(C)(C)O5)CC3)cc21
MIC [1]: > 64 µg/mL | MIC (Bacillus subtilis): 64 µg/mL | MIC (Micrococcus luteus): > 64 µg/mL | MIC (Staphylococcus aureus [9]): > 64 µg/mL | MIC (Pseudomonas aeruginosa [11]): > 64 µg/mL | MIC (Salmonella typhimurium): > 64 µg/mL | MIC (Escherichia coli [15]): 64 µg/mL

CCn1cc(C(=O)O)c(=O)c2cc(F)c(N3CCN(Cc4cnc(C)c(O)c4C)CC3)cc21.Cl
MIC [1]: 16 µg/mL | MIC (Bacillus subtilis): 2 µg/mL | MIC (Micrococcus luteus): 8 µg/mL | MIC (Staphylococcus aureus [9]): 4 µg/mL | MIC (Pseudomonas aeruginosa [11]): > 64 µg/mL | MIC (Salmonella typhimurium): 64 µg/mL | MIC (Escherichia coli [15]): 2 µg/mL
